A word on the IC50: it is the concentration needed to halve the response being measured. A higher IC50 goes with weaker potency.

Assay [1] deals with T1, Retinoic acid receptor alpha (Homo sapiens, UniProt P10276).
T1 sequence (P10276 whole entry): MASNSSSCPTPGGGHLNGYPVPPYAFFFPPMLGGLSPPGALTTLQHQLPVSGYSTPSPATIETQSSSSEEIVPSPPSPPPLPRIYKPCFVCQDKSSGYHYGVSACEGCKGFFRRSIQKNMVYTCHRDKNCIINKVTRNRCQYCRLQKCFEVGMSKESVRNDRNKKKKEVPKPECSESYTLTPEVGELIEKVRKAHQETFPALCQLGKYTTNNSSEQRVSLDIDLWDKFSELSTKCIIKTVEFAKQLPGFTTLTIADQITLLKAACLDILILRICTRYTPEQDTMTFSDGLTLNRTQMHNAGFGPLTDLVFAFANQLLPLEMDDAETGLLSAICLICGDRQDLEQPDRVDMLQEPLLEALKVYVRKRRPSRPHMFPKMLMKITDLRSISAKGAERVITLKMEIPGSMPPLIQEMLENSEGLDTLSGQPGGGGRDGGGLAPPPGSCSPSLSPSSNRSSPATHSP
Nature of the assay: Displacement of radioligand from RARalpha receptor.

In assay [2] the target is T2, Retinoic acid receptor gamma (Homo sapiens, UniProt P13631).
T2 sequence (P13631 whole entry): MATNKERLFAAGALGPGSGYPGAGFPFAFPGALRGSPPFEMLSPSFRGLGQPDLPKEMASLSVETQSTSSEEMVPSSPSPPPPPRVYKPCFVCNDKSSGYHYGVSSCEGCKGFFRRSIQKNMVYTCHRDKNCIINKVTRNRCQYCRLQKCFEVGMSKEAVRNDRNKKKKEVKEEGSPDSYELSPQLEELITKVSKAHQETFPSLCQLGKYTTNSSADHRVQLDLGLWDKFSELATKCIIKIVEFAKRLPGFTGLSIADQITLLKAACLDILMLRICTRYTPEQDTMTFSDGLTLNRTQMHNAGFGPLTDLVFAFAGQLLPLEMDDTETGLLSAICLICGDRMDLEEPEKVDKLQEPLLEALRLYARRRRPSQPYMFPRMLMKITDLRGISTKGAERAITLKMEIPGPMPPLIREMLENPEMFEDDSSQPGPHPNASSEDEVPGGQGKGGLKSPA
Nature of the assay: Displacement of radioligand from RARgamma receptor.

The target of assay [3] is T3, Retinoic acid receptor beta (Homo sapiens, UniProt P10826).
T3 sequence (P10826 whole entry): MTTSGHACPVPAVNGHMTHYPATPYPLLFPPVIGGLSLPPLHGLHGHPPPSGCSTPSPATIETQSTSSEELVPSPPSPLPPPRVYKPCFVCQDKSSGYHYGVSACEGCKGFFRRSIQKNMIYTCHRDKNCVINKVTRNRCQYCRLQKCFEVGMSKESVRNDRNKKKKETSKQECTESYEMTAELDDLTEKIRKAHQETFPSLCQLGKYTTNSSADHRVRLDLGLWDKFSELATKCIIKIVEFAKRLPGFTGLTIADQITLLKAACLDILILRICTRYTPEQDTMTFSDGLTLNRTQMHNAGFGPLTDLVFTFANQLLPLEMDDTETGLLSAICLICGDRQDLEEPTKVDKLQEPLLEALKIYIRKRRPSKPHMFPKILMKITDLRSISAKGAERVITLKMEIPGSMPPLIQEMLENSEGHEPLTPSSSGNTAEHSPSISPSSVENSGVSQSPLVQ
Briefly: Displacement of radioligand from RARbeta receptor.

With `CC(=C\c1coc2cc3c(cc2c1=O)C(C)(C)CCC3(C)C)/C=C(\C)C(=O)O`, the IC50 in assay [1] came out at 15 nM; in assay [2], 40 nM; in assay [3] it was 40 nM.

These data come from ChEMBL document CHEMBL1152352, “Identification of a chromone-based retinoid containing a polyolefinic side chain via facile synthetic routes” (Bioorg Med Chem Lett, 2009).
